One experiment deals with MV-4-11. Description: Oncology cell growth assay MV-4-11 (CellTiter Glo, 72 hours). The experiment is classed as cell-based. To be noted: Homo sapiens, MV4-11, 72 h; MV-4-11 cell growth inhibitory activity, 3d. Put shortly: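 MV-4-11 cells (MLL-AF4 AML) exposed 72 h to 8-point 1:3 titration, top final 10 μM, 0.2% DMSO. CellTiter Glo luminescence as cell-number readout, normalized to DMSO controls; pIC50 from four-parameter fit.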
Background: In ATP-based viability assays light output follows the ATP content of the culture.

For a further experiment, the system named is bromodomain. Nature of the experiment: Bromodomain cell assays of Example 40 (at least one of them). The experiment is classed as cell-based. To be noted: in at least one of the bromodomain cell assays described in Example 40. Put shortly: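 Growth inhibition: 3000 MV-4-11, MOLM-13, MM.1S or neuroblastoma cells/well got an 8-point 1:3 series from 10 μM top (0.2% DMSO) for 72 h, then CellTiter-Glo luminescence. Myc reporter: MV-4-11 with E-box firefly luciferase, 24 h exposure, One-Glo luminescence plus CellTiter-Fluo cell count. pIC50 from four-parameter fit.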

The target of a further experiment is T1, BRD4-BD1 (44-164) (Homo sapiens, UniProt O60885).
T1 construct: BRD4-BD1 (44-164); made in house; host or cells: E. coli BL21-CodonPlus (DE3)
Nature of the experiment: Alphascreen binding assay BRD4-BD1 (BRD4 biochemical inhibitory activity). To be noted: read-out: Biochemical activity (IC50 μM) BRD4(1) H4. As for the experimental part:
Binding of compounds of formula (I) with bromodomain 2, 3 4 was assessed using Alphascreen binding assay. The inhibition of the interaction between bromodomain and its acetylated target protein (Filippakopoulos P et al. 2012) was measured quantitatively using recombinant BRD proteins, an acetylated Histone 4 peptide and AlphaScreen™ technology. In absence of inhibition the BRD protein bound to AlphaScreen™ nickel chelate acceptor beads can interact with the acetylated Histone 4 peptide which is immobilized by the AlphaScreen™ Streptavidin coated beads. This interaction brings donor and acceptor beads in proximity. The close proximity allows the singlet oxygen produced by laser excitation of the donor beads to reach the acceptor beads and generate a luminescence signal. BRD inhibitors result in a decrease in the proximity signal through an inhibition of the BRD—acetylated peptide interaction.
Recombinant human bromodomains containing the N-terminal bromodomain (BRD2-BD1 (71-194), BRD3-BD1 (24-144) and BRD4-BD1 (44-164)) or dual bromodomains (BRD4-BD12 (1-477), BRD4-BD12 (1-472)) were prepared and purified as described in protein expression and purification session. The peptide is human Histone H41-21K5AcK8AcK12AcK16Ac-Biotin (Anaspec Calif., USA).
Protocol for BRD2, BRD3 and BRD4 assay: All components are prepared in buffer composed of 50 mM HEPES pH 7.5, 100 mM NaCl, 0.01% bovine serum albumin (“BSA”), 0.01% Triton X-100, 2 mM dithiothreitol (“DTT”). 7 μL of Bromodomain protein and 7 μL of peptide are added to wells containing 1 μL of various concentrations of test compounds of formula (I) or DMSO vehicle in an Alphaplate (PerkinElmer Ga., USA) and incubated for 1 hour at room temperature. 4 μL donor and acceptor bead mixture is then added with final concentrations of 7.5 μg/ml. 30 minutes after bead addition, Alpha signal is read on the Envision spectrometer ([…]Ex 680 nm, […]Em 520-620 nm). Final concentrations of bromodomain proteins and peptide are as shown below.
All data was normalized to the mean of 16 high and 16 low control wells on each plate. A four parameter curve fit of the following formula was then applied: Y=a+(b−a)/(1+(x/c)^d) Where ‘a’ is the minimum, ‘b’ is the maximum, ‘c’ is the pIC50 and ‘d’ is the Hill slope. Protein Expression and Purification
Recombinant human bromodomains containing the N-terminal bromodomain (BRD2-BD1 (71-194), BRD3-BD1 (24-144) and BRD4-BD1 (44-164)) or dual bromodomains (BRD4-BD12 (1-477), BRD4-BD12 (1-472)) were expressed in E. coli cells (in a modified pET vector) with an N-terminal six-His tag and purified using a combination of both IMAC (Ni-affinity) and size exclusion chromatography steps.
Recombinant BRD proteins were expressed using the E. coli strain BL21-CodonPlus (DE3) (Agilent Technologies Calif., USA). Cells were grown in Terrific Broth (TB) media to an OD600 of 1.2 at 37° C. at which temperature was reduced to 25° C., protein was induced with 1.0 mM ispropyl-β-D-thiogalactopyranoside (“IPTG”) for 12-18 hours and harvested by centrifugation at 8000×g for 20 minutes. Cells were re-suspended in 0.1M K2PO4 pH 8.0, 250 mM NaCl, 10% Glycerol, 0.75% NP-40, 25 mM Imidazole, 5 mM beta-mercaptoethanol (“BME”) with 0.2 mg/ml Lysosyme, 2.0 mM phenylmethanesulfonyl fluoride (“PMSF”), 25 μg/ml DNAse I, incubated on ice for 30 minutes and lyzed with a cell disruptor (MicroFluidics Mass., USA). The lysate was clarified by centrifugation at 20,000×g for 2 hours. The protein was captured with Ni-NTA resin (Life Technologies, USA). Contaminating proteins were washed off with 25 mM Tris-HCl pH 8.3, 250 mM NaCl, 12% Glycerol and 50 mM Imidazole. Following 3× wash steps, protein was eluted step wise using a 50 mM HEPES pH 7.5, 500 mM NaCl and 400 mM Imidazole. The protein was further purified using Gel Filtration column 26/600 Superdex 200 (GE Biosciences NJ, USA) in 50 mM HEPES pH 7.5, 250 mM NaCl. The protein was aliquoted and flash-frozen in liquid Nitrogen. […]

IC50 data for 21 compounds are collected here from patent publication US10501460B2, “Heterocyclic compounds and uses thereof” (Plexxikon Inc., priority 2013, dated 2019).

Molecules are shown by their SMILES. A value given as a limit tells only on which side of the number the result lay.

For orientation: IC50 means the concentration at which inhibition is half-maximal. Regarding `Cc1cc2cc(-c3c(C)noc3C)cnc2[nH]1` [P-0017, 3,5-dimethyl-4-(2-methyl-1H-pyrrolo[2,3-b]pyridin-5-yl)isoxazole], the half-maximal inhibitory concentration (IC50) with MV-4-11 was 1 to 10 µM; in the experiment with bromodomain it was under 10 µM; at BRD4-BD1 (44-164), 1 to 10 µM.

Consider `Cc1noc(C)c1-c1cnc2[nH]cc(C(O)c3ccc(C(F)(F)F)nc3)c2c1` (stereo not shown) [P-0023, [5-(3,5-dimethylisoxazol-4-yl)-1H-pyrrolo[2,3-b]pyridin-3-yl]-[6-(trifluoromethyl)-3-pyridyl]methanol], for which the IC50 with MV-4-11 is 1 to 10 µM; in the experiment on bromodomain it was under 10 µM; at BRD4-BD1 (44-164) it was 1 to 10 µM.

`COc1ccc(S(=O)(=O)n2ccc3ncc(-c4c(C)noc4C)cc32)cc1` [P-0032, 4-[1-(4-methoxyphenyl)sulfonylpyrrolo[3,2-b]pyridin-6-yl]-3,5-dimethyl-isoxazole]: the results for the IC50 in the experiment with MV-4-11, with bromodomain and on BRD4-BD1 (44-164) were 1 to 10 µM, under 10 µM and 1 to 10 µM, respectively.

For `Cc1noc(C)c1-c1cnc2ccn(S(=O)(=O)c3ccc(OC(C)C)cc3)c2c1` [P-0033, 4-[1-(4-isopropoxyphenyl)sulfonylpyrrolo[3,2-b]pyridin-6-yl]-3,5-dimethyl-isoxazole], the results for the 50% inhibitory concentration (IC50) with MV-4-11, in the experiment on bromodomain and at BRD4-BD1 (44-164) were 1 to 10 µM, under 10 µM and 1 to 10 µM, respectively.

Turning to `CCc1cc2cc(-c3c(C)noc3C)cnc2[nH]1` [P-0035, 4-(2-ethyl-1H-pyrrolo[2,3-b]pyridin-5-yl)-3,5-dimethyl-isoxazole], the IC50 in the experiment on MV-4-11 was 1 to 10 µM; in the experiment with bromodomain it was under 10 µM; on BRD4-BD1 (44-164) it was 1 to 10 µM.

`Cc1noc(C)c1-c1cnc2[nH]cc(Cc3cccc(OC(F)(F)F)c3)c2c1` [P-0046, 3,5-dimethyl-4-[3-[[3-(trifluoromethoxy)phenyl]methyl]-1H-pyrrolo[2,3-b]pyridin-5-yl]isoxazole]: the IC50 was 1 to 10 µM in the experiment with MV-4-11, under 10 µM with bromodomain and 1 to 10 µM at BRD4-BD1 (44-164).

In the case of `Cc1noc(C)c1-c1cnc2ccn(S(=O)(=O)c3ccc(F)cc3)c2c1` [P-0052, 4-[1-(4-fluorophenyl)sulfonylpyrrolo[3,2-b]pyridin-6-yl]-3,5-dimethyl-isoxazole], the IC50 with MV-4-11 was 1 to 10 µM; in the experiment with bromodomain, under 10 µM; on BRD4-BD1 (44-164), 1 to 10 µM.

`Cc1noc(C)c1-c1cnc2c(CC3CC3)cn(S(=O)(=O)CCC(F)(F)F)c2c1` [P-0074, 4-[3-(cyclopropylmethyl)-1-(3,3,3-trifluoropropylsulfonyl)pyrrolo[3,2-b]pyridin-6-yl]-3,5-dimethyl-isoxazole]: the IC50 in the experiment on bromodomain was under 10 µM; at BRD4-BD1 (44-164), 1 to 10 µM.

As for `Cc1noc(C)c1-c1cnc2c(C#N)cn(S(=O)(=O)c3ccccc3)c2c1` [P-0081, 1-(benzenesulfonyl)-6-(3,5-dimethylisoxazol-4-yl)pyrrolo[3,2-b]pyridine-3-carbonitrile], the figures for the IC50 in the experiment with bromodomain and at BRD4-BD1 (44-164) were under 10 µM and at most 1 µM, respectively.

Regarding `Cc1noc(C)c1-c1cnc2c(C#N)c[nH]c2c1` [P-0082, 6-(3,5-dimethylisoxazol-4-yl)-1H-pyrrolo[3,2-b]pyridine-3-carbonitrile], the values for the IC50 in the experiment with bromodomain and at BRD4-BD1 (44-164) were under 10 µM and 1 to 10 µM, respectively.

Consider `Cc1noc(C)c1-c1cnc2[nH]cc(I)c2c1` [P-0086, 4-(3-iodo-1H-pyrrolo[2,3-b]pyridin-5-yl)-3,5-dimethyl-isoxazole], for which the results for the IC50 with bromodomain and on BRD4-BD1 (44-164) were under 10 µM and 1 to 10 µM, respectively.

`Cc1noc(C)c1-c1cnc2c(c1)c(I)cn2S(=O)(=O)c1ccccc1` [P-0087, 4-[1-(benzenesulfonyl)-3-iodo-pyrrolo[2,3-b]pyridin-5-yl]-3,5-dimethyl-isoxazole]: the IC50 in the experiment on bromodomain was under 10 µM; on BRD4-BD1 (44-164), 1 to 10 µM.

In the case of `[2H]C([2H])([2H])n1cc(I)c2cc(-c3c(C)noc3C)cnc21` [P-0088, 4-[3-iodo-1-(trideuteriomethyl)pyrrolo[2,3-b]pyridin-5-yl]-3,5-dimethyl-isoxazole], the IC50 with bromodomain is under 10 µM; on BRD4-BD1 (44-164), 1 to 10 µM.

With `Cc1noc(C)c1-c1cnc2c(c1)c(C(O)C1CCS(=O)(=O)CC1)cn2S(=O)(=O)c1ccccc1` (stereo not shown) [P-0094, [1-(benzenesulfonyl)-5-(3,5-dimethylisoxazol-4-yl)pyrrolo[2,3-b]pyridin-3-yl]-(1,1-dioxothian-4-yl)methanol], the IC50 was under 10 µM with bromodomain and 1 to 10 µM on BRD4-BD1 (44-164).

Regarding `Cc1noc(C)c1-c1cnc2c(c1)c(C(F)C1CCS(=O)(=O)CC1)cn2S(=O)(=O)c1ccccc1` (stereo not shown) [P-0095, 4-[[1-(benzenesulfonyl)-5-(3,5-dimethylisoxazol-4-yl)pyrrolo[2,3-b]pyridin-3-yl]-fluoro-methyl]thiane 1,1-dioxide], the IC50 is under 10 µM with bromodomain and 1 to 10 µM on BRD4-BD1 (44-164).

Take `Cc1noc(C)c1-c1cnc2c(c1)c(CC1CCS(=O)(=O)CC1)cn2S(=O)(=O)c1ccccc1` [P-0096, 4-[[1-(benzenesulfonyl)-5-(3,5-dimethylisoxazol-4-yl)pyrrolo[2,3-b]pyridin-3-yl]methyl]thiane 1,1-dioxide]: the IC50 in the experiment with bromodomain is under 10 µM; on BRD4-BD1 (44-164), 1 to 10 µM.

As to `Cc1noc(C)c1-c1cnc2c(I)cn([Si](C(C)C)(C(C)C)C(C)C)c2c1` [P-0130, [6-(3,5-dimethylisoxazol-4-yl)-3-iodo-pyrrolo[3,2-b]pyridin-1-yl]-triisopropyl-silane], the IC50 in the experiment with bromodomain is under 10 µM; on BRD4-BD1 (44-164), 1 to 10 µM.

As for `Cc1noc(C)c1-c1cnc2c(C(=O)O)cn(S(=O)(=O)c3ccccc3)c2c1` [P-0169, 1-(benzenesulfonyl)-6-(3,5-dimethylisoxazol-4-yl)pyrrolo[3,2-b]pyridine-3-carboxylic acid], the IC50 is under 10 µM with bromodomain and at most 1 µM on BRD4-BD1 (44-164).

Regarding `Cc1noc(C)c1-c1cnc2c(c1)N(S(=O)(=O)c1ccccc1)CC2CCC(=O)O` (stereo not shown) [P-0175, 3-[1-(benzenesulfonyl)-6-(3,5-dimethylisoxazol-4-yl)-2,3-dihydropyrrolo[3,2-b]pyridin-3-yl]propanoic acid], the IC50 was under 10 µM in the experiment on bromodomain and 1 to 10 µM at BRD4-BD1 (44-164).

For `Cc1noc(C)c1-c1cnc2c(c1)c(Sc1ccccc1)cn2C1COC1` [P-0178, 3,5-dimethyl-4-[1-(oxetan-3-yl)-3-phenylsulfanyl-pyrrolo[2,3-b]pyridin-5-yl]isoxazole], the IC50 with MV-4-11 and at BRD4-BD1 (44-164) was 1 to 10 µM in each case.

For the compound `Cc1noc(C)c1-c1cnc2c(-c3cnn(C)c3)cn(C(=O)C3CCC(F)(F)CC3)c2c1` [P-0208, (4,4-difluorocyclohexyl)-[6-(3,5-dimethylisoxazol-4-yl)-3-(1-methylpyrazol-4-yl)pyrrolo[3,2-b]pyridin-1-yl]methanone], the IC50 is 1 to 10 µM in the experiment with MV-4-11 and at most 1 µM on BRD4-BD1 (44-164).
